{"source": "patent US20260062443A1", "about": "(ALEXION PHARMACEUTICALS, INC., priority 2022, published 2026)", "data": [{"molecular_target": "T1, Human complement C1s enzyme (Homo sapiens, UniProt P09871)", "T1 sequence (P09871 438-688 limits assumed)": "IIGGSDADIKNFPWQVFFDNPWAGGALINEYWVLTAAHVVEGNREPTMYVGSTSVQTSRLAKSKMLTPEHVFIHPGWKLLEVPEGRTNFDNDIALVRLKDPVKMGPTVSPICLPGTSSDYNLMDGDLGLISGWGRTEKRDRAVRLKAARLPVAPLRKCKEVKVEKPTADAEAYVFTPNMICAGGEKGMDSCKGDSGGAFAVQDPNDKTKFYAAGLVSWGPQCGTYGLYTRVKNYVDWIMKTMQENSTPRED", "T1 sequence (P09871 16-437 partner limits assumed)": "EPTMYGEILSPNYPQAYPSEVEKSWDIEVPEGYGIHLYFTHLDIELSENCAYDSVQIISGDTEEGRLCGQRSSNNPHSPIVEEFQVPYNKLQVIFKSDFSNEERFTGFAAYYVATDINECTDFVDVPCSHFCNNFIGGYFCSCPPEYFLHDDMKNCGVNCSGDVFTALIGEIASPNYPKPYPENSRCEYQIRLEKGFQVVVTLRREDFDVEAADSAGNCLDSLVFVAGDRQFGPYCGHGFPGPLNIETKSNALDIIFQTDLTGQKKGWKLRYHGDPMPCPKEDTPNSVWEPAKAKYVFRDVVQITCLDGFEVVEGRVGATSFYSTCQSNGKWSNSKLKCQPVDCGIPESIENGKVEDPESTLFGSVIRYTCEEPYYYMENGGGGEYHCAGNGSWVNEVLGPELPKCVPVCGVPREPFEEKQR", "test": "Human C1s enzyme assay", "format": "biochemical", "conditions": "human complement C1s enzyme 1.16 nM, substrate Z-L-Lys-SBzl 100 μM, 5 min preincubation; read-out: IC50 (Stars), C1s Inhibiting Activity", "in_short": "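Serum-purified human C1s (1.16 nM final) preincubated 5 min at room temperature with compound in 50 mM Tris, 1 M NaCl, pH 7.5. Z-L-Lys-SBzl and DTNB added at 100 μM each; A405 followed every 30 s for 30 min, and IC50 obtained by nonlinear regression of reaction rates.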", "units": {"IC50": "nM"}, "values": [{"smiles": "C[C@@H](NC(=O)[C@@H]1C[C@@H](OC(F)F)CN1C(=O)CNC(=O)c1ccc2oc3ccccc3c2c1)c1cc2cnccc2[nH]1", "note": "[Compound 220, (2S,4R)-N-((R)-1-(1H-pyrrolo[3,2-c]pyridin-2-yl)ethyl)-1-((dibenzo[b,d]furan-2-carbonyl)glycyl)-4-(difluoromethoxy)pyrrolidine-2-carboxamide]", "IC50": "< 100"}, {"smiles": "C[C@@H](NC(=O)[C@@H]1CC2(CN1C(=O)CNC(=O)c1ccc(-c3ccccc3)cc1)OCCO2)c1cc2cnccc2[nH]1", "note": "[Compound 79, (S)-N-((R)-1-(1H-pyrrolo[3,2-c]pyridin-2-yl)ethyl)-7-(([1,1′-biphenyl]-4-carbonyl)glycyl)-1,4-dioxa-7-azaspiro[4.4]nonane-8-carboxamide]", "IC50": "100 to 1000"}, {"smiles": "Cc1cc(C(=O)NCC(=O)N2C[C@H](OC(F)F)C[C@H]2C(=O)N[C@H](C)c2cc3cnccc3[nH]2)ccc1Oc1ccccc1", "note": "[Compound 81]", "IC50": "< 100"}, {"smiles": "O=C(NCC(=O)N1C[C@H](OC(F)F)C[C@H]1C(=O)NCc1cc2cnccc2s1)c1ccc2c(c1)Oc1ccccc1S2", "note": "[Compound 141, (2S,4R)-4-(difluoromethoxy)-1-((phenoxathiine-3-carbonyl)glycyl)-N-(thieno[3,2-c]pyridin-2-ylmethyl)pyrrolidine-2-carboxamide]", "IC50": "< 100"}, {"smiles": "O=C(NCC(=O)N1C[C@H](OC(F)F)C[C@H]1C(=O)NCc1ccc2c(c1)CCN2)c1ccc2c(c1)Oc1ccccc1S2", "note": "[Compound 197, (2S,4R)-4-(difluoromethoxy)-N-(indolin-5-ylmethyl)-1-((phenoxathiine-3-carbonyl)glycyl)pyrrolidine-2-carboxamide]", "IC50": "> 1000"}, {"smiles": "O=C(NCc1cc2cnccc2[nH]1)[C@@H]1CC2(CN1C(=O)CN1Cc3cc(-c4ccc(F)cc4F)ccc3C1=O)OCCO2", "note": "[Compound 120, (S)-N-((1H-pyrrolo[3,2-c]pyridin-2-yl)methyl)-7-(2-(5-(2,4-difluorophenyl)-1-oxoisoindolin-2-yl)acetyl)-1,4-dioxa-7-azaspiro[4.4]nonane-8-carboxamide]", "IC50": "< 100"}, {"smiles": "O=C(NCC(=O)N1C[C@H](OC(F)F)C[C@H]1C(=O)NCc1cc2cnccc2[nH]1)c1cc2c(cc1F)Sc1ccccc1O2", "note": "[Compound 355, (2S,4R)-N-((1H-pyrrolo[3,2-c]pyridin-2-yl)methyl)-4-(difluoromethoxy)-1-((2-fluorophenoxathiine-3-carbonyl)glycyl)pyrrolidine-2-carboxamide]", "IC50": "< 100"}, {"smiles": "O=C(NCC(=O)N1CC2(C[C@H]1C(=O)NCc1cc3cnccn3c1)OCCO2)c1ccc2c(c1)Oc1ccccc1S2", "note": "[Compound 111, 7-{2-[(Phenoxathiine-3-carbonyl)-amino]-acetyl}-1,4-dioxa-7-aza-spiro[4.4]nonane-8-carboxylic acid (pyrrolo[1,2-a]pyrazin-7-ylmethyl)-amide]", "IC50": "< 100"}, {"smiles": "C[C@@H](NC(=O)[C@@H]1C[C@@H](OC(F)F)CN1C(=O)CN1Cc2cc(-c3ccc(F)cc3)ccc2C1=O)c1cc2cnccc2[nH]1", "note": "[Compound 101, (2S,4R)-N-((R)-1-(1H-pyrrolo[3,2-c]pyridin-2-yl)ethyl)-4-(difluoromethoxy)-1-(2-(5-(4-fluorophenyl)-1-oxoisoindolin-2-yl)acetyl)pyrrolidine-2-carboxamide]", "IC50": "< 100"}, {"smiles": "O=C(NCC(=O)N1C[C@H](OC(F)F)C[C@H]1C(=O)NCc1ccc2c(c1)CCNC2)c1ccc2c(c1)Oc1ccccc1S2", "note": "[Compound 223, (2S,4R)-4-(difluoromethoxy)-1-((phenoxathiine-3-carbonyl)glycyl)-N-((1,2,3,4-tetrahydroisoquinolin-6-yl)methyl)pyrrolidine-2-carboxamide]", "IC50": "100 to 1000"}, {"smiles": "Cc1ccc(Oc2cccc(C(=O)NCC(=O)N3C[C@H](OC(F)F)C[C@H]3C(=O)NCc3c(C)cc(N)nc3C)c2F)cc1", "note": "[Compound 374, (2S,4R)-N-((6-amino-2,4-dimethylpyridin-3-yl)methyl)-4-(difluoromethoxy)-1-((2-fluoro-3-(p-tolyloxy)benzoyl)glycyl) pyrrolidine-2-carboxamide]", "IC50": "> 1000"}, {"smiles": "Cc1ccc2c(c1)Sc1ccc(C(=O)NCC(=O)N3C[C@H](OC(F)F)C[C@H]3C(=O)N[C@H](C)c3cc4cnccc4[nH]3)cc1O2", "note": "[Compound 286, (2S,4R)-N-((R)-1-(1H-pyrrolo[3,2-c]pyridin-2-yl)ethyl)-4-(difluoromethoxy)-1-((8-methylphenoxathiine-3-carbonyl)glycyl)pyrrolidine-2-carboxamide]", "IC50": "< 100"}, {"smiles": "C[C@H](NC(=O)[C@@H]1C[C@]2(C)C[C@@H]2N1C(=O)CNC(=O)CCCOc1ccccc1)c1cc2cnccc2[nH]1", "note": "[Compound 57, (1S,3S,5S)-N-((S)-1-(1H-pyrrolo[3,2-c]pyridin-2-yl)ethyl)-5-methyl-2-((4-phenoxybutanoyl)glycyl)-2-azabicyclo[3.1.0]hexane-3-carboxamide]", "IC50": "> 1000"}, {"smiles": "O=C(NCC(=O)N1C[C@H](OC(F)F)C[C@H]1C(=O)NCc1ccc2nccn2c1)c1ccc2c(c1)Oc1ccccc1S2", "note": "[Compound 233, (2S,4R)-4-(difluoromethoxy)-N-(imidazo[1,2-a]pyridin-6-ylmethyl)-1-((phenoxathiine-3-carbonyl)glycyl)pyrrolidine-2-carboxamide]", "IC50": "> 1000"}, {"smiles": "O=C(NCC(=O)N1CC2(C[C@H]1C(=O)N[C@H](CO)c1cc3cnccc3[nH]1)OCCO2)c1ccc(Oc2ccc(F)cc2)cc1", "note": "[Compound 94, (S)-7-((4-(4-fluorophenoxy)benzoyl)glycyl)-N-((S)-2-hydroxy-1-(1H-pyrrolo[3,2-c]pyridin-2-yl)ethyl)-1,4-dioxa-7-azaspiro[4.4]nonane-8-carboxamide]", "IC50": "> 1000"}, {"smiles": "Cc1cc2[nH]c(CNC(=O)[C@@H]3C[C@]4(C)C[C@@H]4N3C(=O)CNC(=O)c3ccc4c(c3)Oc3ccccc3S4)cc2cn1", "note": "[Compound 268, (1S,3S,5S)-5-methyl-N-((6-methyl-1H-pyrrolo[3,2-c]pyridin-2-yl)methyl)-2-((phenoxathiine-3-carbonyl)glycyl)-2-azabicyclo[3.1.0]hexane-3-carboxamide]", "IC50": "> 1000"}, {"smiles": "CC(c1cccc(F)c1)c1ccc(C(=O)NCC(=O)N2CC3(C[C@H]2C(=O)NCc2cc4cnccc4[nH]2)OCCO3)s1", "note": "(stereo partly drawn) [Compound 357, (8S)-N-((1H-pyrrolo[3,2-c]pyridin-2-yl)methyl)-7-((5-(1-(3-fluorophenyl)ethyl)thiophene-2-carbonyl)glycyl)-1,4-dioxa-7-azaspiro[4.4]nonane-8-carboxamide]", "IC50": "100 to 1000"}, {"smiles": "C[C@@]12C[C@@H]1N(C(=O)CNC(=O)CCCOc1ccccc1)[C@H](C(=O)N[C@@H]1CCN(Cc3c[nH]cn3)C1=O)C2", "note": "[Compound 61, (1S,3S,5S)-N-((R)-1-((1H-imidazol-4-yl)methyl)-2-oxopyrrolidin-3-yl)-5-methyl-2-((4-phenoxybutanoyl)glycyl)-2-azabicyclo[3.1.0]hexane-3-carboxamide]", "IC50": "> 1000"}, {"smiles": "C[C@@H](NC(=O)[C@@H]1C[C@]2(C)C[C@@H]2N1C(=O)CNC(=O)c1cccc(Oc2ccccc2)c1)c1cc2cnccc2[nH]1", "note": "[Compound 171, (1S,3S,5S)-N-((R)-1-(1H-pyrrolo[3,2-c]pyridin-2-yl)ethyl)-5-methyl-2-((3-phenoxybenzoyl)glycyl)-2-azabicyclo[3.1.0]hexane-3-carboxamide]", "IC50": "< 100"}, {"smiles": "Cc1ccc(Oc2cccc(C(=O)NCC(=O)N3C[C@H](OC(F)F)C[C@H]3C(=O)NCc3cc4cnccc4[nH]3)c2)c(Cl)c1", "note": "[Compound 292, (2S,4R)-N-((1H-pyrrolo[3,2-c]pyridin-2-yl)methyl)-1-((3-(2-chloro-4-methylphenoxy)benzoyl)glycyl)-4-(difluoromethoxy)pyrrolidine-2-carboxamide]", "IC50": "< 100"}, {"smiles": "C[C@@H](NC(=O)C1CSCN1C(=O)CNC(=O)c1ccc2c(c1)Oc1ccccc1S2)c1cc2cnccc2[nH]1", "note": "(stereo partly drawn) [Compound 289, N-((R)-1-(1H-pyrrolo[3,2-c]pyridin-2-yl)ethyl)-3-((phenoxathiine-3-carbonyl)glycyl)thiazolidine-4-carboxamide]", "IC50": "< 100"}, {"smiles": "C[C@@]12C[C@@H]1N(C(=O)CNC(=O)c1cccc(Oc3ccc(F)cc3)c1)[C@H](C(=O)NCc1cc3cnccn3c1)C2", "note": "[Compound 269, (1S,3S,5S)-2-((3-(4-fluorophenoxy)benzoyl)glycyl)-5-methyl-N-(pyrrolo[1,2-a]pyrazin-7-ylmethyl)-2-azabicyclo[3.1.0]hexane-3-carboxamide]", "IC50": "< 100"}, {"smiles": "C[C@@H](NC(=O)[C@@H]1CC2(CN1C(=O)CNC(=O)c1ccc(-c3ccc(F)cc3F)cc1)OCCO2)c1cc2cnccc2[nH]1", "note": "[Compound 68, (S)-N-((R)-1-(1H-pyrrolo[3,2-c]pyridin-2-yl)ethyl)-7-((2′,4′-difluoro-[1,1′-biphenyl]-4-carbonyl)glycyl)-1,4-dioxa-7-azaspiro[4.4]nonane-8-carboxamide]", "IC50": "100 to 1000"}, {"smiles": "O=C(NCC(=O)N1CC2(C[C@H]1C(=O)NCc1cc3cnccc3[nH]1)OCCO2)c1ccc2c(c1)Sc1ccccc1O2", "note": "[Compound 24, (S)-N-((1H-pyrrolo[3,2-c]pyridin-2-yl)methyl)-7-((phenoxathiine-2-carbonyl)glycyl)-1,4-dioxa-7-azaspiro[4.4]nonane-8-carboxamide]", "IC50": "< 100"}]}]}
